Results on seven compounds are retold here after patent US10344026B2, “Compositions and methods of targeting mutant K-ras” (NANTBIO, INC., priority 2017, dated 2019).

What all share (assay type): cell-based
The subject of experiment [1] is U87-MG (K-Ras wild type cell line). The experiment in a line: Viability assay (CellTiterBlue, 72 hr) U87-MG. The settings on record: Homo sapiens, U-87 MG, GI50, CellTiterBlue, U87-MG K-Ras wild-type. An outline of the steps: (§1)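 1000 cells/well, 18 hr pre-incubation at 37 °C; compound added from DMSO stock, 0.5% DMSO final; 72 hr; CellTiterBlue 3 hr, fluorescence Ex550/Em590; GI50 normalized to DMSO = 100%, 100 uM tamoxifen = 0% viability.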

Experiment [2] relates to phospho-Akt in Panc1 (G12D). Put plainly: In-Cell Western phospho-Akt, Panc1. The settings on record: Homo sapiens, PANC-1, 1 h; Panc1, one hour treatment; read-out: In-Cell Western Panc1 (G12D) Akt (P). An outline of the steps:
(§2)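 EC50 values come from immunofluorescence quantitation of phosphorylated ERK or Akt in fixed cells exposed to compound for one hour at 0.5% DMSO. Maximal inhibition is defined by 1 uM BEZ235 for Akt and 1 uM MEK Inhibitor II for ERK.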

In experiment [3] the test system is HCC827 (K-Ras wild type cell line). Put plainly: Viability assay (CellTiterBlue, 72 hr) HCC827. The settings on record: Homo sapiens, GI50, CellTiterBlue, HCC827 K-Ras wild-type. Summed up: as §1
For orientation: The colour change of resazurin is a common sign of viable cells or microbes.

For a further experiment, the system named is HCT116-G31D. The experiment in a line: Viability assay (CellTiterBlue, 72 hr) HCT116. The settings on record: Homo sapiens, HCT-116, GI50, CellTiterBlue, HCT116 K-Ras G13D, read-out: 72 hr Cell Viability HCT116 (G13D). Summed up: as §1
Experiment [4] concerns phospho-ERK in Panc1 (G12D). Put plainly: In-Cell Western phospho-ERK, Panc1. As to conditions: Homo sapiens, PANC-1, 1 h; Panc1, one hour treatment; read-out: In-Cell Western Panc1 (G12D) Erk (P). Summed up: as §2
The next experiment has as its system Panc10.05-G12D. The experiment in a line: Viability assay (CellTiterBlue, 72 hr) Panc10.05. The settings on record: Homo sapiens, Panc1005, GI50, CellTiterBlue, Panc10.05 K-Ras G12D, read-out: 72 hr Cell Viability Panc10.05 (G12D). Summed up: as §1
The test system of another experiment is Panc1-G12D. Put plainly: Viability assay (CellTiterBlue, 72 hr) Panc1. The settings on record: Homo sapiens, PANC-1, GI50, CellTiterBlue, Panc1 K-Ras G12D, read-out: 72 hr Cell Viability Panc1 (G12D). Summed up:
as §1

In experiment [5] the test system is phospho-Akt in HCC827 (Wild-type). Put plainly: In-Cell Western phospho-Akt, HCC827. The settings on record: Homo sapiens, 1 h; HCC827, one hour treatment; read-out: In-Cell Western HCC827 (Wild-type) Akt (P). The procedure: In-cell phosphorylation assays for Erk and Akt were performed on several of the compounds and exemplary results are shown in Table 3 below using HCC827 and A375 cell lines for wild type K-Ras and Panc1 and Panc10.05 cell lines for G12D K-Ras mutants. Results are expressed in μM and corresponding structures are shown in FIGS. 2A-2G and Examples 1-152, above.
Cells are seeded in complete medium into black sided, clear-bottom 384-well microplates at 3000 cells/[…]/well. Plates are returned to 37° C. CO2 incubator for 18 hr. Drug is made as 200× in DMSO and diluted into medium to 10×. To each well is added 4 ul 10× test article or controls, and plates are returned to the incubator. Final assay DMSO concentration is 0.5%. After one hour, cells are fixed in formaldehyde, rinsed & permeabilized with triton X-100, and blocked with BSA/Goat serum blocking solution. Primary phospho-Akt and phospho-ERK antibodies are added and plates are incubated overnight at 4° C. Plates are rinsed with Tween-20 wash buffer and secondary antibody (Goat anti-rabbit, Thermofisher) is added. After 2 hours, plates are rinsed in Tween-20 wash buffer, and then PBS. Plates are imaged on the Celigo (Nexcelom) and cellular fluorescence is quantitated. Full inhibition of phospho-Akt is achieved with 1 uM BEZ235 (Sellekchem), while full inhibition of phospho-ERK is achieved with 1 uM MEK Inhibitor II Calbiochem). EC50 values are calculated using Graphpad Prism.

Experiment [6] deals with phospho-ERK in HCC827 (Wild-type). Put plainly: In-Cell Western phospho-ERK, HCC827. As to conditions: Homo sapiens, 1 h; HCC827, one hour treatment; read-out: In-Cell Western HCC827 (Wild-type) Erk (P). An outline of the steps: as §2
The subject of experiment [7] is Ishikawa (K-Ras wild type cell line). The experiment in a line: Viability assay (CellTiterBlue, 72 hr) Ishikawa. As to conditions: Homo sapiens, GI50, CellTiterBlue, Ishikawa K-Ras wild-type. Summed up: as §1
Experiment [8] has as its system phospho-Akt in Panc10.05 (G12D). Put plainly: In-Cell Western phospho-Akt, Panc10.05. As to conditions: Homo sapiens, Panc1005, 1 h; Panc10.05, one hour treatment; read-out: In-Cell Western Panc10.05 (G12D) Akt (P). Summed up: as §2
A further experiment deals with T1, wild type K-Ras (Homo sapiens, UniProt P01116).
T1 construct: expressed in transfected cells; host or cells: 293H cells
Put plainly: G-LISA Ras activation, 293H cells transfected with Ras wild-type, EGF stimulated. The settings on record: compound 1 hour, then 100 ng/ml EGF 2 minutes. Summed up: (§3)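 Active Ras was quantified by G-LISA in lysates of 293H cells transiently expressing wild-type or mutant Ras. Compounds (3.125-25 μM) were applied for 1 hour; only wild-type transfected cells were stimulated with 100 ng/ml EGF for 2 minutes.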

Experiment [9] deals with phospho-ERK in Panc10.05 (G12D). Put plainly: In-Cell Western phospho-ERK, Panc10.05. The settings on record: Homo sapiens, Panc1005, 1 h; Panc10.05, one hour treatment; read-out: In-Cell Western Panc10.05 (G12D) Erk (P). Summed up:
as §2

Experiment [10] relates to phospho-Akt in A375 (Wild-type). Put plainly: In-Cell Western phospho-Akt, A375. As to conditions: Homo sapiens, A-375, 1 h; A375, one hour treatment; read-out: In-Cell Western A375 (Wild-type) Akt (P). Summed up: as §2
The next experiment addresses T2, K-Ras G12D (Homo sapiens, UniProt P01116, G12D).
T2 construct: expressed in transfected cells; host or cells: 293H cells
The experiment in a line: G-LISA Ras activation, 293H cells transfected with G12D mutant. The settings on record: compound 1 hour. An outline of the steps:
as §3

Experiment [11] deals with phospho-ERK in A375 (Wild-type). The experiment in a line: In-Cell Western phospho-ERK, A375. The settings on record: Homo sapiens, A-375, 1 h; A375, one hour treatment; read-out: In-Cell Western A375 (Wild-type) Erk (P). Summed up: as §2
In experiment [12] the test system is A375 (K-Ras wild type cell line). The experiment in a line: Viability assay (CellTiterBlue, 72 hr) A375. As to conditions: Homo sapiens, A-375, GI50, CellTiterBlue. Summed up:
as §1

Structures are written as SMILES.

T2 sequence (P01116 whole entry G12D): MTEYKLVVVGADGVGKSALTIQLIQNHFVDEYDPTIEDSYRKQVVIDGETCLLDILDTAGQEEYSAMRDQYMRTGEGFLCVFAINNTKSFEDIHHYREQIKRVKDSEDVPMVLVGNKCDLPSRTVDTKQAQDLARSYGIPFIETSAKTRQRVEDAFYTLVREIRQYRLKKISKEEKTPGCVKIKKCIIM
T1 sequence (P01116 whole entry): as the sequence (P01116 whole entry G12D) above, with D12G counted along it

For `Cn1cc(C(=O)Nc2nc(-c3ccc4c(c3)CCC(=O)N4)cs2)c(-c2ccccc2)n1` [Compound 29, 1-methyl-N-(4-(2-oxo-1,2,3,4-tetrahydroquinolin-6-yl)thiazol-2-yl)-3-phenyl-1H-pyrazole-4-carboxamide], the IC50 (in [1]; in experiment [3]; in the experiment with HCT116-G31D; in the experiment with Panc10.05-G12D; with Panc1-G12D; in experiment [7]) was over 25 µM each time. The EC50 is over 25 µM in [2], 13 µM in [4], over 25 µM in [5] and 21 µM in experiment [6].
For the compound `Cc1nc(C)c(C(=O)Nc2nc(-c3ccc4c(c3)CCC(=O)N4CCN(C)C)cs2)o1` [Compound 97, N-(4-(1-(2-(dimethylamino)ethyl)-2-oxo-1,2,3,4-tetrahydroquinolin-6-yl)thiazol-2-yl)-2,4-dimethyloxazole-5-carboxamide], the IC50 in experiment [1] is over 25 µM; in experiment [3], 5 µM; in the experiment on HCT116-G31D it was 5 µM; against wild type K-Ras, 12.6 µM; with Panc10.05-G12D it was 4 µM; in the experiment on Panc1-G12D, 9 µM. The IC50 is 8.1 µM against K-Ras G12D, over 25 µM in experiment [7] and over 25 µM in [12]. The EC50 in experiment [2] came out at 6 µM; in experiment [8], 12 µM; in experiment [9] it was 1.2 µM; in experiment [10], 10 µM; in experiment [4], 5 µM; in [11], 8 µM. Besides, the EC50 in [6] was over 25 µM.
As for `Cc1nn(C)cc1C(=O)Nc1nc(-c2ccc3c(c2)CCC(=O)N3Cc2cccnc2)cs1` [Compound 112, 1,3-dimethyl-N-(4-(2-oxo-1-(pyridin-3-ylmethyl)-1,2,3,4-tetrahydroquinolin-6-yl)thiazol-2-yl)-1H-pyrazole-4-carboxamide], the IC50 in experiment [1] was over 25 µM; in experiment [3], 4 µM; in the experiment with HCT116-G31D, 2 µM; on wild type K-Ras, 10.7 µM; in the experiment with Panc10.05-G12D, 3 µM; with Panc1-G12D, 5 µM. Besides, the values for the IC50 (against K-Ras G12D; in experiment [7]; in experiment [12]) were 10 µM, over 25 µM and over 25 µM, respectively. In addition, the EC50 in [2] was determined as 5 µM; in experiment [8], 18 µM; in experiment [9], 1 µM; in [10], 11 µM; in experiment [4] it was 4 µM; in experiment [11], 8 µM. The EC50 in experiment [6] came to 17 µM.
As for `CCc1nc(C)c(C(=O)Nc2nc(-c3ccc4c(c3)CCC(=O)N4Cc3cccnc3)cs2)s1` [Compound 106, 2-ethyl-4-methyl-N-(4-(2-oxo-1-(pyridin-3-ylmethyl)-1,2,3,4-tetrahydroquinoinolin-6-yl)thiazol-2-yl)thiazole-5-carboxamide], the IC50 was over 25 µM in experiment [1]; over 25 µM in experiment [3]; 6 µM in the experiment with HCT116-G31D; 9.6 µM against wild type K-Ras; 3 µM in the experiment with Panc10.05-G12D; 12 µM with Panc1-G12D. Also, the IC50 is 4.4 µM against K-Ras G12D, over 25 µM in experiment [7] and 22 µM in experiment [12]. Also, the EC50 in experiment [2] is 25 µM; in [8], over 25 µM; in experiment [9] it was 10 µM; in experiment [10] it was over 25 µM; in experiment [4], 5 µM; in experiment [11], 20 µM. The EC50 in experiment [6] is 7 µM.
Turning to `Cc1nc(C(C)C)oc1C(=O)Nc1nc(-c2ccc3c(c2)CCC(=O)N3Cc2cccnc2)cs1` [Compound 91], the IC50 in experiment [1] was over 25 µM; in experiment [3] it was 3 µM; in the experiment with HCT116-G31D, 1.5 µM; on wild type K-Ras, 11.7 µM; in the experiment on Panc10.05-G12D, 2 µM; with Panc1-G12D it was 5 µM. Also, the IC50 on K-Ras G12D is 8.4 µM; in experiment [7], over 25 µM; in experiment [12], over 25 µM. Further, the EC50 amounted to 4 µM in experiment [2]; 12 µM in experiment [8]; 1.4 µM in experiment [9]; 5 µM in experiment [10]; 8 µM in experiment [4]; 5 µM in [11]. For the same compound, the EC50 in [6] was determined as 11 µM.
For the compound `Cn1nc(C(C)(C)C)cc1C(=O)Nc1nc(-c2ccc3c(c2)CCC(=O)N3)cs1` [Compound 43, 3-(tert-butyl)-1-methyl-N-(4-(2-oxo-1,2,3,4-tetrahydroquinolin-6-yl)thiazol-2-yl)-1H-pyrazole-5-carboxamide], the IC50 (in experiment [1]; in experiment [3]; in the experiment with HCT116-G31D; against wild type K-Ras; with Panc10.05-G12D; in the experiment on Panc1-G12D) was over 25 µM each time. Moreover, the IC50 (on K-Ras G12D; in experiment [7]; in experiment [12]) was over 25 µM each time. Also, the EC50 in experiment [2], in experiment [8], in [9], in [10], in experiment [4] and in [11] was over 25 µM throughout. Besides, the EC50 in experiment [6] came out at 19 µM.
For the compound `COC(=O)CCN1C(=O)CCc2cc(-c3csc(NC(=O)c4oc(C)nc4C)n3)ccc21` [Compound 99, methyl 3-(6-(2-(2,4-dimethyloxazole-5-carboxamido)thiazol-4-yl)-2-oxo-3,4-dihydroquinoiolin-1 (2H)-yl)propanoate], the IC50 is over 25 µM in experiment [1]; over 25 µM in experiment [3]; over 25 µM with HCT116-G31D; 10.2 µM against wild type K-Ras; 6 µM in the experiment with Panc10.05-G12D; 6 µM in the experiment on Panc1-G12D. Also, the results for the IC50 (against K-Ras G12D; in experiment [7]; in [12]) were 6.7 µM, 4 µM and 6 µM, respectively. The EC50 is over 25 µM in experiment [2]; 10 µM in experiment [8]; 5 µM in experiment [9]; over 25 µM in experiment [10]; 14 µM in [4]; over 25 µM in experiment [11]. Besides, the EC50 in experiment [6] stood at 5 µM.
